Here are results for 34 molecules from patent US8324390B2, “Tetrazole-substituted anthranilamides as pesticides” (Bayer CropScience AG, priority 2008, dated 2012).

Where two headings read alike, the source gives them in different places. Some results are limits rather than exact numbers.

Data set [1] is described as follows: log P determination by HPLC (EEC Directive 79/831 Annex V.A8). The class given is physicochemical. The method, then: The measurements were carried out using an Agilent 1100 LC system with a 50*4.6 Zorbax Eclipse C18 1.8 μm column (oven temperature 55° C., flow rate 2.0 ml/min).
The following mobile phases were used:
Mobile phase A: acetonitrile+1000 μl of formic acid/l
Mobile phase B: Millipore water+900 μl of formic acid/l

For data set [2], the system named is caterpillars of the armyworm (Spodoptera frugiperda). Put plainly: Spodoptera frugiperda test (SPODFR spray treatment). Type of data set: in vivo. As to conditions: Spodoptera frugiperda, foliar, read-out: effect in % (caterpillars killed). An excerpt:
Solvent: 78.0 parts by weight of acetone

Data set [3] relates to larvae of the mustard beetle (Phaedon cochleariae). The data set is described as follows: Phaedon test (PHAECO spray treatment). As to conditions: Phaedon cochleariae, in Brassica rapa, foliar, read-out: effect in % (beetle larvae killed).
The mark [4] stands for this setting: reversed-phase HPLC, Zorbax Eclipse C18 column, by HPLC according to EEC Directive 79/831 Annex V.A8, read-out: log P.
The mark [5] stands for this setting: application rate 100 g/ha, maize leaf discs.
Setting [6] is: by HPLC according to EEC Directive 79/831 Annex V.A8, read-out: log P.
The mark [7] stands for this setting: reversed-phase HPLC, Zorbax Eclipse C18 column, determined by HPLC according to EEC Directive 79/831 Annex V.A8, read-out: log P.

Regarding `O=C(NC1CC1)c1cc(Cl)cc(Cl)c1NC(=O)c1cc(Cn2nnnc2C(F)(F)C(F)(F)F)nn1-c1ncccc1Cl` [Example 204], the chromatographic logP in data set [1] (log P) is 3.24. Also, the pest or weed control at 100 g/ha in data set [2] (in Zea mays) and in data set [3] was no less than 80% in each case.

For `Cc1cc(Cl)cc(C(=O)NC(C)(C)C)c1NC(=O)c1cc(Cn2nnc(C(F)(F)F)n2)nn1-c1ccccc1Br` [Example 348], the chromatographic logP in data set [1] (setting [4]) was 4.43. The pest or weed control at 100 g/ha in data set [2] (setting [5]) and in data set [3] was no less than 80% each time.

In the case of `Cc1cc(Cl)cc(C(=O)NC(C)C2CC2)c1NC(=O)c1cc(Cn2nnc(C(F)F)n2)nn1-c1ncccc1Cl` (stereo not drawn) [Example 256], the chromatographic logP in data set [1] (log P) worked out at 3.24. Moreover, the pest or weed control at 100 g/ha in data set [2] (in Zea mays) and in data set [3] was no less than 80% each time.

Regarding `Cc1cc(Cl)cc(C(=O)NC(C)(C)C)c1NC(=O)c1cc(Cn2nnc(C(F)(C(F)(F)F)C(F)(F)F)n2)nn1-c1ncccc1Cl` [Example 362], the chromatographic logP in data set [1] (setting [4]) is 4.56. The pest or weed control at 100 g/ha in data set [2] (setting [5]) and in data set [3] was no less than 80% in each case.

As to `Cc1cc(C#N)cc(C(=O)NCC2CC2)c1NC(=O)c1cc(Cn2nnc(C(F)(F)C(F)(F)F)n2)nn1-c1ncccc1Cl` [Example 138], the chromatographic logP in data set [1] (log P) was 3.56. Moreover, the pest or weed control at 100 g/ha in data set [2] (in Zea mays) and in data set [3] was no less than 80% in each case.

In the case of `CNC(=O)c1cc(Cl)cc(C)c1NC(=O)c1cc(Cn2nnc(C(F)(F)F)n2)nn1-c1ncccc1Br` [Example 331], the chromatographic logP in data set [1] (setting [4]) was found to be 3.01. Besides, the pest or weed control at 100 g/ha in data set [2] (setting [5]) and in data set [3] was no less than 80% in each case.

In turn, `N#CCNC(=O)c1cc(Cl)cc(Cl)c1NC(=O)c1cc(Cn2nnc(C(F)(C(F)(F)F)C(F)(F)F)n2)nn1-c1ncccc1Cl` [Example 393] yielded a chromatographic logP in data set [1] (log P) of 3.59. Also, the pest or weed control at 100 g/ha in data set [2] (in Zea mays) and in data set [3] was no less than 80% each time.

Take `Cc1cc(C#N)cc(C(=O)NC(C)C2CC2)c1NC(=O)c1cc(Cn2nnc(C(F)(C(F)(F)F)C(F)(F)F)n2)nn1-c1ncccc1Cl` (stereo not drawn) [Example 368]: the chromatographic logP in data set [1] (setting [4]) came to 4.07. Besides, the pest or weed control at 100 g/ha in data set [2] (setting [5]) and in data set [3] was no less than 80% throughout.

For `Cc1cc(C#N)cc(C(=O)NC(C)(C)C)c1NC(=O)c1cc(Cn2nnc(C(F)(F)C(F)(F)C(F)(F)F)n2)nn1-c1ncccc1Cl` [Example 108], the chromatographic logP in data set [1] (setting [6]) turned out to be 4.16. Besides, the pest or weed control at 100 g/ha in data set [2] (in Zea mays) and in data set [3] was no less than 80% each time.

Molecule `Cc1cc(C#N)cc(C(=O)NC2CCC2)c1NC(=O)c1cc(Cn2nnc(C(F)(F)C(F)(F)F)n2)nn1-c1ncccc1Cl` [Example 139] registered a chromatographic logP in data set [1] (log P) of 3.61. In addition, the pest or weed control at 100 g/ha in data set [2] (in Zea mays) and in data set [3] was no less than 80% throughout.

The molecule `NC(=O)c1cc(Cl)cc(Cl)c1NC(=O)c1cc(Cn2nnc(C(F)(F)C(F)(F)F)n2)nn1-c1ncccc1Cl` [Example 155] yielded a chromatographic logP in data set [1] (log P) of 3.13. For the same molecule, the pest or weed control at 100 g/ha in data set [2] (in Zea mays) and in data set [3] was no less than 80% in each case.

`Cc1cc(C#N)cc(C(=O)NCc2ccoc2)c1NC(=O)c1cc(Cn2nnc(C(F)(F)F)n2)nn1-c1ncccc1Cl` [Example 99]: the chromatographic logP in data set [1] (log P) was 3.09. Moreover, the pest or weed control at 100 g/ha in data set [2] (in Zea mays) and in data set [3] was no less than 80% in each case.

`C#CCNC(=O)c1cc(C#N)cc(C)c1NC(=O)c1cc(Cn2nnnc2C(F)(F)F)nn1-c1ncccc1Cl` [Example 187] displayed a chromatographic logP in data set [1] (log P) of 2.48. The pest or weed control at 100 g/ha in data set [2] (in Zea mays) and in data set [3] was no less than 80% in each case.

In the case of `CNC(=O)c1cc(I)cc(C)c1NC(=O)c1cc(Cn2nnc(C(F)(F)C(F)(F)C(F)(F)F)n2)nn1-c1ncccc1Cl` [Example 112], the chromatographic logP in data set [1] (setting [6]) came to 3.99. Also, the pest or weed control at 100 g/ha in data set [2] (in Zea mays) and in data set [3] was no less than 80% in each case.

Take `Cc1cc(C#N)cc(C(=O)NC(C)(C)C)c1NC(=O)c1cc(Cn2nnc(C(F)(F)F)n2)nn1-c1ncccc1C(F)(F)F` [Example 232]: the chromatographic logP in data set [1] (setting [4]) is 3.59. Also, the pest or weed control at 100 g/ha in data set [2] (setting [5]) and in data set [3] was no less than 80% each time.

`Cc1cc(I)cc(C(=O)NC(C)C)c1NC(=O)c1cc(Cn2nnc(C(F)(F)C(F)(F)C(F)(F)F)n2)nn1-c1ncccc1Cl` [Example 109]: in data set [1] (setting [6]), the chromatographic logP worked out at 4.48. For the same molecule, the pest or weed control at 100 g/ha in data set [2] (in Zea mays) and in data set [3] was no less than 80% each time.

In turn, `Cc1cc(Cl)cc(C(=O)NC(C)(C)C)c1NC(=O)c1cc(C(C)n2nnc(C(F)(F)F)n2)nn1-c1ncccc1Cl` (stereo not drawn) [Example 541] showed a chromatographic logP in data set [1] (log P) of 4.1. The pest or weed control at 100 g/ha in data set [2] (in Zea mays) and in data set [3] was no less than 80% throughout.

Regarding `Cc1cc(I)cc(C(=O)NC(C)C)c1NC(=O)c1cc(Cn2nnc(C(F)(F)F)n2)nn1-c1ncccc1Br` [Example 413], in data set [1] (setting [7]), the chromatographic logP came to 3.77. The pest or weed control at 100 g/ha in data set [2] (setting [5]) and in data set [3] was no less than 80% each time.

Regarding `Cc1cc(C#N)cc(C(=O)NC(C)(C)C)c1NC(=O)c1cc(Cn2nnc(C(F)(F)F)n2)nn1-c1ccc(Cl)cc1` [Example 527], in data set [1] (setting [7]), the chromatographic logP was found to be 4.16. Besides, the pest or weed control at 100 g/ha in data set [2] (setting [5]) and in data set [3] was no less than 80% in each case.

For the molecule `Cc1cc(C#N)cc(C(=O)NCC#N)c1NC(=O)c1cc(Cn2nnc(C(F)(F)F)n2)nn1-c1ncccc1C(F)(F)F` [Example 253], the chromatographic logP in data set [1] (setting [4]) was 2.81. In addition, the pest or weed control at 100 g/ha in data set [2] (setting [5]) and in data set [3] was no less than 80% in each case.

`CCNC(=O)c1cc(C#N)cc(C)c1NC(=O)c1cc(Cn2nnc(C(F)(F)C(F)(F)F)n2)nn1-c1ncccc1Cl` [Example 215]: the chromatographic logP in data set [1] (log P) is 3.24. The pest or weed control at 100 g/ha in data set [2] (in Zea mays) and in data set [3] was no less than 80% in each case.

Consider `Cc1cc(C#N)cc(C(=O)NC(C)(C)C)c1NC(=O)c1cc(Cn2nnc(C(F)(F)F)n2)nn1-c1ccccc1Cl` [Example 343], for which, in data set [1] (setting [4]), the chromatographic logP is 3.92. Besides, the pest or weed control at 100 g/ha in data set [2] (setting [5]) and in data set [3] was no less than 80% throughout.

`Cc1cc(C#N)cc(C(=O)NC(C)(C)C)c1NC(=O)c1cc(Cn2nnc(C(F)(F)F)n2)nn1-c1ccccc1Br` [Example 347]: in data set [1] (setting [4]), the chromatographic logP was 3.95. Moreover, the pest or weed control at 100 g/ha in data set [2] (setting [5]) and in data set [3] was no less than 80% throughout.

For the molecule `O=C(NC1CCC1)c1cc(Cl)cc(Cl)c1NC(=O)c1cc(Cn2nnc(C(F)F)n2)nn1-c1ncccc1Cl` [Example 291], the chromatographic logP in data set [1] (log P) worked out at 3.06. Moreover, the pest or weed control at 100 g/ha in data set [2] (in Zea mays) and in data set [3] was no less than 80% in each case.

In data set [1] (log P), `CNC(=O)c1cc(C#N)cc(C)c1NC(=O)c1cc(Cn2nnc(C(F)F)n2)nn1-c1ncccc1Cl` [Example 262] returned a chromatographic logP of 2.17. Also, the pest or weed control at 100 g/ha in data set [2] (in Zea mays) and in data set [3] was no less than 80% in each case.

`Cc1cc(Cl)cc(C(=O)NCC(C)C)c1NC(=O)c1cc(Cn2nnc(C(F)(F)F)n2)nn1-c1ncccc1Cl` [Example 37] had a chromatographic logP in data set [1] (log P) of 3.78. Further, the pest or weed control at 100 g/ha in data set [2] (in Zea mays) and in data set [3] was no less than 80% in each case.

As to `Cc1cc(C#N)cc(C(N)=O)c1NC(=O)c1cc(Cn2nnnc2C(F)(F)F)nn1-c1ncccc1Cl` [Example 192], the chromatographic logP in data set [1] (log P) was 2.12. Moreover, the pest or weed control at 100 g/ha in data set [2] (in Zea mays) and in data set [3] was no less than 80% each time.

`Cc1cc(Cl)cc(C(=O)NCC#N)c1NC(=O)c1cc(Cn2nnc(C(F)(C(F)(F)F)C(F)(F)F)n2)nn1-c1ncccc1Cl` [Example 358]: the chromatographic logP in data set [1] (log P) is 3.62. Also, the pest or weed control at 100 g/ha in data set [2] (in Zea mays) and in data set [3] was no less than 80% each time.

`O=C(NCC1CC1)c1cc(Cl)cc(Cl)c1NC(=O)c1cc(Cn2nnc(C(F)(F)F)n2)nn1-c1ncccc1Cl` [Example 63] gave a chromatographic logP in data set [1] (log P) of 3.47. Moreover, the pest or weed control at 100 g/ha in data set [2] (in Zea mays) and in data set [3] was no less than 80% each time.

For `Cc1cc(C#N)cc(C(=O)NC(C)C)c1NC(=O)c1cc(Cn2nnc(C(F)(F)F)n2)nn1-c1ncccc1Br` [Example 323], in data set [1] (setting [4]), the chromatographic logP came out at 3.1. For the same molecule, the pest or weed control at 100 g/ha in data set [2] (setting [5]) and in data set [3] was no less than 80% in each case.

Consider `CSC[C@H](C)NC(=O)c1cc(Cl)cc(C)c1NC(=O)c1cc(Cn2nnc(C(F)(F)C(F)(F)F)n2)nn1-c1ncccc1Cl` [Example 212], for which the chromatographic logP in data set [1] (log P) worked out at 4.09. Besides, the pest or weed control at 100 g/ha in data set [2] (in Zea mays) and in data set [3] was no less than 80% each time.

In the case of `Cc1cc(C#N)cc(C(=O)NC(C)(C)C)c1NC(=O)c1cc(Cn2nnc(C(C)(C)C)n2)nn1-c1ncccc1Cl` [Example 100], the chromatographic logP in data set [1] (log P) amounted to 3.44. Also, the pest or weed control at 100 g/ha in data set [2] (in Zea mays) and in data set [3] was no less than 80% in each case.

In the case of `Cc1cc(C#N)cc(C(=O)NCC(C)(C)CF)c1NC(=O)c1cc(Cn2nnc(C(F)(F)F)n2)nn1-c1ncccc1Cl` [Example 116], the chromatographic logP in data set [1] (log P) amounted to 3.35. Further, the pest or weed control at 100 g/ha in data set [2] (in Zea mays) and in data set [3] was no less than 80% each time.

Molecule `Cc1cc(Br)cc(C(=O)NC2CCC2)c1NC(=O)c1cc(Cn2nnc(C(F)(F)F)n2)nn1-c1ncccc1Cl` [Example 50] came in with a chromatographic logP in data set [1] (log P) of 3.71. Moreover, the pest or weed control at 100 g/ha in data set [2] (in Zea mays) and in data set [3] was no less than 80% throughout.
